# Source: patent publication US8124793B2, “Derivatives of ethylene methanedisulfonate as cancer chemotherapeutic agents” (priority 2007, dated 2012)
# Assays:
# Format in all cases: cell-based
# SR = experiment: NCI screen, growth of human tumor cells: Leukemia SR; settings: SR
# Experimental: (§1) In the NCI screening process, each compound was tested and described by a minimum of 60 data points. The test data include, but are not limited to the type of cancer, the molar concentration used in the screen, and the percent growth of the cancer. In some cases, NMR and elemental analysis were used for structural assignment.
# HS 578T = experiment: NCI screen, growth of human tumor cells: Breast Cancer HS 578T; settings: HS 578T (Breast Cancer), 10^−4 molar
# Experimental: as §1
# UO-31 = experiment: NCI screen, growth of human tumor cells: Renal Cancer UO-31; settings: UO-31 (Renal Cancer), 10^−4 molar
# Experimental: as §1
# K562 = experiment: NCI screen, growth of human tumor cells: Leukemia K562; settings: K562 (Leukemia), 10^−4 molar
# Experimental: as §1
# HL-60 (TB) = experiment: NCI screen, growth of human tumor cells: Leukemia HL-60 (TB); settings: HL-60 (TB) (Leukemia), 10^−4 molar
# Experimental: as §1
# COLO205 = experiment: NCI screen, growth of human tumor cells: Colon Cancer COLO205; settings: COLO205 (Colon Cancer), 10^−4 molar
# Experimental: as §1
# MDA-MB-435 = experiment: NCI screen, growth of human tumor cells: Breast Cancer MDA-MB-435; settings: for percent of growth of human tumor cells: MDA-MB-435 (Breast Cancer), 10^−4 molar
# Experimental: as §1
# MOLT-4 = experiment: NCI screen, growth of human tumor cells: Leukemia MOLT-4
# Experimental: as §1
# HOP-62 = experiment: NCI screen, growth of human tumor cells: Non-Small Cell Lung HOP-62; settings: HOP-62, 10^−4 molar
# Experimental: as §1
# human cancer cells = experiment: NCI screen summary over the cancers tested (negative growth of human cancer cells); settings: 10^−4 M conc.; cancers with negative growth / cancers tested
# Experimental: as §1
# The derivatives in the tables are grouped using the same category as in the tables 1-6.
# CCRF-CEM = experiment: NCI screen, growth of human tumor cells: Leukemia CCRF-CEM; settings: CCRF-CEM (Leukemia), 10^−4 molar
# Experimental: as §1
# NCI-H522 = experiment: NCI screen, growth of human tumor cells: Non-Small Cell Lung NCI-H522; settings: NCI-H522 (Non-Small Cell Lung), 10^−4 molar
# Experimental: as §1
# HCC-2998 = experiment: NCI screen, growth of human tumor cells: HCC-2998 (listed under Non-Small Cell Lung)
# Experimental: as §1
# DU-145 = experiment: NCI screen, growth of human tumor cells: Prostate Cancer DU-145; settings: DU-145 (Prostate Cancer), 10^−4 molar
# Experimental: as §1
# M14 = experiment: NCI screen, growth of human tumor cells: Melanoma M14; settings: M14 (Melanoma), 10^−4 molar
# Experimental: as §1
# MCF7/ADR-RES = experiment: NCI screen, growth of human tumor cells: Breast Cancer MCF7/ADR-RES; settings: MCF7/ADR-RES (Breast Cancer), 10^−4 molar
# Experimental: as §1
# HCT-15 = experiment: NCI screen, growth of human tumor cells: Colon Cancer HCT-15
# Experimental: as §1
# SN12C = experiment: NCI screen, growth of human tumor cells: Renal Cancer SN12C; settings: SN12C (Renal Cancer), 10^−4 molar
# Experimental: as §1
# SF-268 = experiment: NCI screen, growth of human tumor cells: CNS Cancer SF-268; settings: SF-268 (CNS Cancer), 10^−4 molar
# Experimental: as §1
# NCI-H460 = experiment: NCI screen, growth of human tumor cells: Non-Small Cell Lung NCI-H460; settings: NCI-H460 (Non-Small Cell Lung), 10^−4 molar
# Experimental: as §1
# SNB-75 = experiment: NCI screen, growth of human tumor cells: CNS Cancer SNB-75; settings: SNB-75 (CNS Cancer), 10^−4 molar
# Experimental: as §1
# OVCAR-4 = experiment: NCI screen, growth of human tumor cells: Ovarian Cancer OVCAR-4; settings: OVCAR-4 (Ovarian Cancer), 10^−4 molar
# Experimental: as §1
# UACC-257 = experiment: NCI screen, growth of human tumor cells: Melanoma UACC-257; settings: UACC-257 (Melanoma), 10^−4 molar
# Experimental: as §1
# NCI-H23 = experiment: NCI screen, growth of human tumor cells: Non-Small Cell Lung NCI-H23; settings: NCI-H23 (Non-Small Cell Lung), 10^−4 molar
# Experimental: as §1
# HOP-92 = experiment: NCI screen, growth of human tumor cells: Non-Small Cell Lung HOP-92; settings: HOP-92 (Non-Small Cell Lung), 10^−4 molar
# Experimental: as §1
# UACC-62 = experiment: NCI screen, growth of human tumor cells: Melanoma UACC-62; settings: UACC-62 (Melanoma), 10^−4 molar
# Experimental: as §1
# SK-MEL-5 = experiment: NCI screen, growth of human tumor cells: Melanoma SK-MEL-5; settings: SK-MEL-5 (Melanoma), 10^−4 molar
# Experimental: as §1
# LOXIMVI = experiment: NCI screen, growth of human tumor cells: Melanoma LOXIMVI; settings: LOXIMVI (Melanoma), 10^−4 molar
# Experimental: as §1
# MALME-3M = experiment: NCI screen, growth of human tumor cells: Melanoma MALME-3M; settings: MALME-3M (Melanoma), 10^−4 molar
# Experimental: as §1
# MCF 7 = experiment: NCI screen, growth of human tumor cells: Breast Cancer MCF 7; settings: MCF 7 (Breast Cancer), 10^−4 molar
# Experimental: as §1
# U-251 = experiment: NCI screen, growth of human tumor cells: CNS Cancer U-251; settings: U-251 (CNS Cancer), 10^−4 molar
# Experimental: as §1
# BT-549 = experiment: NCI screen, growth of human tumor cells: Breast Cancer BT-549; settings: BT-549 (Breast Cancer), 10^−4 molar
# Experimental: as §1
# IGROVI = experiment: NCI screen, growth of human tumor cells: Ovarian Cancer IGROVI; settings: for % Growth: IGROVI
# Experimental: as §1
# OVCAR-3 = experiment: NCI screen, growth of human tumor cells: Ovarian Cancer OVCAR-3; settings: OVCAR-3 (Ovarian Cancer), 10^−4 molar
# Experimental: as §1
# CAKI-1 = experiment: NCI screen, growth of human tumor cells: Renal Cancer CAKI-1; settings: CAKI-1 (Renal Cancer), 10^−4 molar
# Experimental: as §1
# EKVX = experiment: NCI screen, growth of human tumor cells: Non-Small Cell Lung EKVX; settings: EKVX
# Experimental: as §1
# PC-3 = experiment: NCI screen, growth of human tumor cells: Prostate Cancer PC-3; settings: PC-3 (Prostate Cancer), 10^−4 molar
# Experimental: as §1
# MDA-MB-231/ATCC = experiment: NCI screen, growth of human tumor cells: Breast Cancer MDA-MB-231/ATCC; settings: MDA-MB-231/ATCC (Breast Cancer), 10^−4 molar
# Experimental: as §1
# OVCAR-8 = experiment: NCI screen, growth of human tumor cells: Ovarian Cancer OVCAR-8; settings: OVCAR-8 (Ovarian Cancer), 10^−4 molar
# Experimental: as §1
# HCT-116 = experiment: NCI screen, growth of human tumor cells: Colon Cancer HCT-116; settings: HCT-116 (Colon Cancer), 10^−4 molar
# Experimental: as §1
# ACHN = experiment: NCI screen, growth of human tumor cells: Renal Cancer ACHN; settings: ACHN (Renal Cancer), 10^−4 molar
# Experimental: as §1
Compound,% Growth (SR; 10^−4 molar) [%],% Growth (SR; 10^−5 molar) [%],percent of growth of human tumor cells (HS 578T) [%],percent of growth of human tumor cells (UO-31) [%],percent of growth of human tumor cells (K562) [%],percent of growth of human tumor cells (HL-60 (TB)) [%],percent of growth of human tumor cells (COLO205) [%],percent of growth of human tumor cells (MDA-MB-435) [%],Percentage of cancers showing negative growth cancers tested (human cancer cells),percent of growth of human tumor cells (NCI-H522) [%],percent of growth of human tumor cells (DU-145) [%],percent of growth of human tumor cells (M14) [%],percent of growth of human tumor cells (MCF7/ADR-RES) [%],percent of growth of human tumor cells (NCI-H460) [%],percent of growth of human tumor cells (NCI-H23) [%],percent of growth of human tumor cells (MALME-3M) [%],percent of growth of human tumor cells (MCF 7) [%],percent of growth of human tumor cells (OVCAR-3) [%],other results
CC1=C(CC2(C(=O)C(=O)OCC3COC(C)(C)O3)S(=O)(=O)OCCOS2(=O)=O)C(=O)c2ccccc2C1=O (stereo not shown) [NSC 737277],−25,50,24,22,5,−33,−8,−11,10^−4 M conc. = 6/9 = 67%,,,,,,,,,,"percent of growth of human tumor cells (MOLT-4; MOLT-4 (Leukemia), 10^−4 molar): −12%; % Growth (HOP-62): −84%"
CC1(C)OCC(COC(=O)C(=O)C2(C3=C(Cl)C(=O)c4ccccc4C3=O)S(=O)(=O)OCCOS2(=O)=O)O1 (stereo not shown) [NSC 737278],−37,20,,4,12,−25,−9,−45,10^−4 M conc. = 8/12 = 67%,−30,6,−4,,,,,,,"% Growth (SR; 10^−6 molar): 33%; % Growth (SR; 10^−7 molar): 56%; percent of growth of human tumor cells (CCRF-CEM): 22%; % Growth (HCC-2998; HCC-2998, 10^−4 molar): −15%; % Growth (HCC-2998; HCC-2998, 10^−5 molar): 41%; % Growth (HCC-2998; HCC-2998, 10^−6 molar): 45%; % Growth (HCC-2998; HCC-2998, 10^−7 molar): 64%; % Growth (MOLT-4; MOLT-4, 10^−4 molar): −41%; % Growth (MOLT-4; MOLT-4, 10^−5 molar): 53%"
CCOCC1(CC2=C(C)C(=O)c3ccccc3C2=O)S(=O)(=O)OCCOS1(=O)=O [NSC 698124],,,27,,,,−25,,10^−4 M conc. = 8/25 = 32%,−45,27,,30,11,16,−9,19,−17,"percent of growth of human tumor cells (HCT-15; HCT-15 (Colon Cancer), 10^−4 molar): 15%; percent of growth of human tumor cells (SN12C): −25%; percent of growth of human tumor cells (SF-268): 20%; percent of growth of human tumor cells (SNB-75): 11%; percent of growth of human tumor cells (OVCAR-4): 14%; percent of growth of human tumor cells (UACC-257): 12%; percent of growth of human tumor cells (HOP-92): 27%; percent of growth of human tumor cells (UACC-62): −32%; percent of growth of human tumor cells (SK-MEL-5): 9%; percent of growth of human tumor cells (LOXIMVI): −55%; percent of growth of human tumor cells (HCC-2998; HCC-2998 (under Non-Small Cell Lung), 10^−4 molar): 8%; % Growth (MDA-MB-435; MDA-MB-435, 10^−4 molar): −74%; percent of growth of human tumor cells (U-251): 20%; percent of growth of human tumor cells (BT-549): 27%; percent of growth of human tumor cells (IGROVI; IGROVI (Ovarian Cancer), 10^−4 molar): 6%"
O=C(c1ccccc1S(=O)(=O)O)C1S(=O)(=O)OCCOS1(=O)=O [NSC 693880],,,,,,,5,,10^−4 M conc. = 8/17 = 47%,,,−4,4,−11,12,−15,−1,76,"percent of growth of human tumor cells (CAKI-1): −8%; % Growth (EKVX; 10^−4 molar): 25%; % Growth (EKVX; 10^−5 molar): 6%; % Growth (HCT-15; HCT-15, 10^−4 molar): −41%; % Growth (HCT-15; HCT-15, 10^−5 molar): 40%; percent of growth of human tumor cells (PC-3): 5%; percent of growth of human tumor cells (MDA-MB-231/ATCC): 25%; percent of growth of human tumor cells (OVCAR-8): −33%; percent of growth of human tumor cells (HCT-116): 20%; percent of growth of human tumor cells (ACHN): 8%; % Growth (IGROVI; 10^−4 molar): −21%; % Growth (IGROVI; 10^−5 molar): 37%; % Growth (IGROVI; 10^−6 molar): 60%"
